Where two headings read alike, the source gives them in different places.
Key:
in vitro = conditions: human, Caco-2
Experimental: Caco-2 cells, a human colon adenocarcinoma cell line, were grown as monolayers for 21 days in Dulbecco's Modified Eagle's medium (1X) containing 10% fetal bovine serum, 1% non-essential amino acid solution, 1% penicillin-streptomycin and 2% glutamine at 37° C. in an atmosphere of 5% CO2 and 90% relative humidity. Caco-2 cells from passage numbers of 51 to 52 were seeded on permeable polycarbonate inserts (1 cm^2, 0.4 μm pore size) in 12 Transwell plates at a density of 80,000 cells/cm^2. The inserts were fed with media every other day until they were used for experiments 21 days after the initial seeding. The integrity of the cell monolayers was evaluated by measuring the transepithelial electrical resistance (TEER) values before the study using a Millicell®-ERS meter (Millipore Corp., Bedford, Mass.) with chopstick electrodes. […] The cell monolayers were washed twice with PBS prior to the transport experiments. After the wash, the plates were incubated for 30 min at 37° C., and the integrity of the cell monolayers was evaluated by measurement of TEER. The cell inserts were used in transport experiments when the TEER values reached >300 Ωcm^2.
The insert was moved to a well containing fresh PBS every 10 min for 40 min.
Papp was calculated according to the following equation: […]
The percent enhancement ratio, ER(%), for the Papp was calculated from the formula, […]

[1] = Intra-nasal administration of salmon calcitonin (sCT) with or without AT1002, plasma sCT by LC-MS; format: in vivo, Sprague-Dawley rats; conditions: for Tmax: 15 mg/kg
Experimental: Jugular cannulated Sprague-Dawley rats randomly received formulations of salmon calcitonin. The formulations administered intra-nasally to rats were dextrose solution of sCT (15 mg/kg) with or without various doses of AT1002 (2, 5, and 10 mg/kg). Doses were then slowly administered intra-nasally with a volume dose of 400 μl kg rat. Blood samples were drawn via the jugular cannula at each time point, and were deproteinized by the addition of acetonitrile. The concentration of sCT in the plasma was determined by LC-MS.

[2] = Intranasal administration of [14C] PEG4000 or [14C] inulin with/without AT1002, plasma concentration; format: in vivo, Sprague-Dawley rats; conditions: inulin with AT1002 10 mg/kg, p<0.05
Excerpt: Male Sprague-Dawley rats cannulated in the jugular vein were randomly assigned to receive radiolabelled paracellular markers, [^14C] PEG4000 or [^14C] inulin, with/without AT1002, for each intranasal study.

[3] = Intranasal administration of [3H]-AZT or [3H]-saquinavir with AT1002, uptake into blood plasma
Experimental: Blood samples (250 μl) were drawn into heparinized syringes at 10 or 15 min into polypropylene tubes, centrifuged (13,000 rpm for 10 min) immediately and plasma was obtained. Scintillation cocktail was added and samples were analyzed for radioactivity by Beckman Coulter LS 6500 multi-purpose Scintillation counter.
In a volume of 20 μl, 120 μCi/kg of [^3H]-AZT was administered to FVB mice of 20-25 g each. Other FVB mice received the same amount of AZT administered in the presence of AT1002(2 mg/kg). Blood samples were taken at 10 or 15 minutes.
[hu 3H]-Saquinavir (120 μCi/kg) was administered in a 20 μl volume intranasally to FVB mice in the absence or presence of AT1002 (5 mg/kg).

[4] = target: T1, protease activated receptor-2 (PAR-2) receptor (Mus musculus, UniProt P55086); conditions: intracolonic infusion of a 5 μg dose; cited from earlier work
T1 construct: Intracolonic infusion of a 5 μg dose of the PAR-2 agonist, SLIGRL
T1 sequence (P55086 26-399): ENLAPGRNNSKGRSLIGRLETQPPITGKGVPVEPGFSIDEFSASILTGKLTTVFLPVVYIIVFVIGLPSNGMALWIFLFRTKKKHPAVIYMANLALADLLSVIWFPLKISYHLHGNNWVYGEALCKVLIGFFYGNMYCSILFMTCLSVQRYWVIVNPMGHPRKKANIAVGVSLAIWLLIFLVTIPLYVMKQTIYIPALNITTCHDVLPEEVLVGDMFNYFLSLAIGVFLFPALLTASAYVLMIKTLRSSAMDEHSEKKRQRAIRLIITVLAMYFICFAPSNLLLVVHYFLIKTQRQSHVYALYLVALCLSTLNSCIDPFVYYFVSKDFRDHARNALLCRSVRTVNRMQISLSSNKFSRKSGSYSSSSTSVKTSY

Caco-2 cell monolayers = conditions: ZOT 0.22 to 0.89×10^−10 mol/ml, across Caco-2 cell monolayers; cited from earlier work
[5] = sCT 15 mg/kg intra-nasal with 10 mg/kg of AT1002, p<0.05

OC[C@@H](O)[C@@H](O)[C@H](O)[C@H](O)CO [Mannitol]
Papp (in vitro): 0.686 ± 0.057 ×10⁻⁶ cm/s

CC(C)C[C@H](NC(=O)[C@H](CCCCN)NC(=O)CNC(=O)[C@H](CC(C)C)NC(=O)[C@@H](NC(=O)[C@@H]1CSSC[C@H](N)C(=O)N[C@@H](CO)C(=O)N[C@@H](CC(N)=O)C(=O)N[C@@H](CC(C)C)C(=O)N[C@@H](CO)C(=O)N[C@@H]([C@@H](C)O)C(=O)N1)C(C)C)C(=O)N[C@@H](CO)C(=O)N[C@@H](CCC(N)=O)C(=O)N[C@@H](CCC(=O)O)C(=O)N[C@@H](CC(C)C)C(=O)N[C@@H](Cc1c[nH]cn1)C(=O)N[C@@H](CCCCN)C(=O)N[C@@H](CC(C)C)C(=O)N[C@@H](CCC(N)=O)C(=O)N[C@H](C(=O)N[C@@H](Cc1ccc(O)cc1)C(=O)N1CCC[C@H]1C(=O)N[C@@H](CCCNC(=N)N)C(=O)N[C@H](C(=O)N[C@@H](CC(N)=O)C(=O)N[C@H](C(=O)NCC(=O)N[C@@H](CO)C(=O)NCC(=O)N[C@H](C(=O)N1CCC[C@H]1C(N)=O)[C@@H](C)O)[C@@H](C)O)[C@@H](C)O)[C@@H](C)O [sCT only, Salmon calcitonin]
Tmax ([1]; Sprague-Dawley, rat, plasma, inhaled or intranasal, sCT 15 mg/kg intra-nasal alone (control), mean ± SEM, read-out: sCT Tmax (converted)): 32.5 min | Tmax ([1]; Sprague-Dawley, rat, plasma, inhaled or intranasal, sCT 15 mg/kg intra-nasal, sCT only (FIG. 7), read-out: Tmax of average plasma concentration profile of sCT (converted)): 30 min | Cmax ([1]; Sprague-Dawley, rat, plasma, inhaled or intranasal, sCT 15 mg/kg intra-nasal alone (control), mean ± SEM): 1230 ± 250 ng/mL | AUC(0-t) ([1]; Sprague-Dawley, rat, plasma, inhaled or intranasal, sCT 15 mg/kg intra-nasal alone (control), mean ± SEM, n=3-5, read-out: sCT AUC0-90 min (converted)): 997 ng·h/mL

H-FCIGRL-OH [AT1002, H-FCIGRL-OH]
inulin AUC0-360min, increase over control [2]: 292% | inulin Cmax, increase over control [2]: 315% | increase of plasma concentration of sCT vs sCT control ([1]; at 20 min, sCT 15 mg/kg intra-nasal with 10 mg/kg of AT1002, p<0.05): 1.99 fold | increase in sCT AUC0-90min to sCT control [1, 5]: 1.66 fold | increase in sCT Cmax to sCT control [1, 5]: 1.67 fold | increase of AZT levels in plasma ([3]; [3H]-AZT 120 μCi/kg intranasal, AT1002 2 mg/kg co-administered, blood at 10 or 15 min, vs AZT alone, p<0.05): about 33% | increase of saquinavir levels in plasma ([3]; [3H]-saquinavir 120 μCi/kg intranasal, in presence of AT1002 5 mg/kg vs absence): about 51%

SLIGRL
increase in the paracellular permeability of [51Cr]-EDTA [4]: 2 fold

ZOT: 44.8 kDa protein (399 amino acids) of Vibrio cholerae that reversibly opens tight junctions
enhanced transport of agents of varying molecular weights or low bioavailability (Caco-2 cell monolayers): up to 30 fold

— US20090252672A1, “NASAL DELIVERY OF THERAPEUTIC AGENTS USING TIGHT JUNCTION AGONISTS” (priority 2006, published 2009)
